# Read-outs that look alike come from different tables or passages of the source.
# Tests used:
# [1] = molecular target: CDK1 (cyclin B) (Homo sapiens (Human), UniProt P06493); assay: Z'-LYTE kinase assay; assay type: biochemical
# Excerpt: The following equations were used for Z′-LYTE™ Screening Assay Data Analysis.
# [2] = molecular target: CDK2 (cyclin A) (Homo sapiens (Human), UniProt P24941); assay: Z'-LYTE kinase assay; assay type: biochemical
# Experimental: IC50 values of compounds against CDK2 (cyclin A) were determined by Z'-LYTETM. […] The following equations were used for Z'-LYTETM Screening Assay Data Analysis.
# [3] = molecular target: FMS kinase (Homo sapiens (Human), UniProt P07333); assay: LanthaScreen kinase assay (ATP, fluorescent-PolyGT substrate, TR-FRET); assay type: biochemical
# [4] = system: MCF-7; assay: Cancer cell proliferation assay, single agent; assay type: cell-based; settings: Homo sapiens
# [5] = molecular target: PI3Kδ kinase (Homo sapiens (Human), UniProt O00329); assay: PI3Kδ kinase ADP-Glo assay (Reaction Biology Corporation); settings: read-out: PI3Kδ IC50
# [6] = molecular target: CDK5 (p25) (Homo sapiens (Human), UniProt Q00535); assay: Z'-LYTE kinase assay; assay type: biochemical
# Excerpt: The following equations were used for Z'-LYTETM Screening Assay Data Analysis.
# [7] = molecular target: CDK7 (cyclin H) (Homo sapiens (Human), UniProt P50613); assay: Adapta Assay; assay type: biochemical
# Excerpt: The following equations were used for Adapta™ Assay Data Analysis.
# [8] = system: BT-549; assay: Cancer cell proliferation assay, single agent; assay type: cell-based; settings: Homo sapiens; BT-549 cells; treated for 24-168 hours; read-out: IC50 (nM) BT-549
# [9] = system: DU4475; assay: Cancer cell proliferation assay, single agent; assay type: cell-based; settings: Homo sapiens
# [10] = molecular target: CDK9 (cyclin K) (Homo sapiens (Human), UniProt P50750); assay: LanthaScreen Eu Kinase Binding Assay; settings: read-out: CDK9/K IC50
# [11] = molecular target: CDK4 (Homo sapiens (Human), UniProt P11802); assay: In vitro kinase inhibition, luminescence (ADP-Glo) with retinoblastoma substrate; assay type: biochemical
# [12] = molecular target: CDK6 (Homo sapiens (Human), UniProt Q00534); assay: biochemical; assay type: biochemical
# [13] = system: A549; assay: Cancer cell proliferation assay, single agent; assay type: cell-based; settings: Homo sapiens; A549 cells; treated for 24-168 hours; read-out: IC50 (nM) A549
# [14] = MCF7, read-out: IC50 (nM) MCF-7
# [15] = MCF7, MCF-7 cells, treated for 24-168 hours, read-out: IC50 (nM) MCF-7
# [16] = DU-4475, DU4475 cells, treated for 24-168 hours, read-out: IC50 (nM) DU4475
# [17] = DU-4475, read-out: IC50 (nM) DU4475
# Sequence of CDK5 (p25) (Q00535 whole entry): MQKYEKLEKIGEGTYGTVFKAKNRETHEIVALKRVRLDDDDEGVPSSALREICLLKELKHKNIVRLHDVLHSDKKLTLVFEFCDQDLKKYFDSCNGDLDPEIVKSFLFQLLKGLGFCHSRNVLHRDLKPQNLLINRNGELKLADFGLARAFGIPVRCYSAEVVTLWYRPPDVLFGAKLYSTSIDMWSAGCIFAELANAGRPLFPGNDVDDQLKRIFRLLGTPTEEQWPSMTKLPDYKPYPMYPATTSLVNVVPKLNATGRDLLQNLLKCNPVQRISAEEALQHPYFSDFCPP
# Sequence of CDK5 (p25) (Q15078 99-307 partner): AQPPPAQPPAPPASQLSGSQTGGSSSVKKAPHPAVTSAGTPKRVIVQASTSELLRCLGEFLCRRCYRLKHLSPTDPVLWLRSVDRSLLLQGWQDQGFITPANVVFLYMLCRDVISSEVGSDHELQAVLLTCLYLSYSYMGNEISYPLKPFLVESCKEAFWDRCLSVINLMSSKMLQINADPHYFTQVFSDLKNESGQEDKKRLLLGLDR
# Sequence of PI3Kδ kinase (O00329 whole entry): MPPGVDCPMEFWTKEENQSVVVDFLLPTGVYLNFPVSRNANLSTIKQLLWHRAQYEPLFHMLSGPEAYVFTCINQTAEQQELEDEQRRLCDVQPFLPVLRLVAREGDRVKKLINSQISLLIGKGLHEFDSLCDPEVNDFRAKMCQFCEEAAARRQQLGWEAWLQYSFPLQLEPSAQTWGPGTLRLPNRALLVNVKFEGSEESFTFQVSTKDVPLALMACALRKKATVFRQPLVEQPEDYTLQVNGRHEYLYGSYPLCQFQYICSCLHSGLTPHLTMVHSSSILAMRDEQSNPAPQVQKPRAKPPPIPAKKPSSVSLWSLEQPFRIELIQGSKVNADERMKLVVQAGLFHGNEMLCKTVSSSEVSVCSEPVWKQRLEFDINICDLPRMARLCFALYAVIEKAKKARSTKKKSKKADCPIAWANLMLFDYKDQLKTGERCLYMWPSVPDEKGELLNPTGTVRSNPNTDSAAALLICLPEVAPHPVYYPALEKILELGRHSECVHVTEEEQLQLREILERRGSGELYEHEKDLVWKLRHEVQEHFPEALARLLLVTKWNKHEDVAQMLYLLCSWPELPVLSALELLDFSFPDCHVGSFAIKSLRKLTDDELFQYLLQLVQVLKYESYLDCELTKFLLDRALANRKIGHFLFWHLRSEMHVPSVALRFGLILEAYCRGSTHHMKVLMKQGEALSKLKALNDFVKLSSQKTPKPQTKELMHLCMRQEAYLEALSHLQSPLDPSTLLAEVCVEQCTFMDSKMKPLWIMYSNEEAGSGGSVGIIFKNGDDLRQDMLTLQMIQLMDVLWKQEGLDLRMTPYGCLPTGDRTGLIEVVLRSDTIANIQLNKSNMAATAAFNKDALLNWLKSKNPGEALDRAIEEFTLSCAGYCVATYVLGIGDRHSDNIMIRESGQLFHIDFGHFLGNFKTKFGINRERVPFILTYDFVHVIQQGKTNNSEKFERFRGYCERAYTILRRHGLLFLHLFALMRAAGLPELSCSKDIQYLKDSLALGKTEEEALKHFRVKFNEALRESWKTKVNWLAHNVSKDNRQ
# Sequence of PI3Kδ kinase (P27986 whole entry partner): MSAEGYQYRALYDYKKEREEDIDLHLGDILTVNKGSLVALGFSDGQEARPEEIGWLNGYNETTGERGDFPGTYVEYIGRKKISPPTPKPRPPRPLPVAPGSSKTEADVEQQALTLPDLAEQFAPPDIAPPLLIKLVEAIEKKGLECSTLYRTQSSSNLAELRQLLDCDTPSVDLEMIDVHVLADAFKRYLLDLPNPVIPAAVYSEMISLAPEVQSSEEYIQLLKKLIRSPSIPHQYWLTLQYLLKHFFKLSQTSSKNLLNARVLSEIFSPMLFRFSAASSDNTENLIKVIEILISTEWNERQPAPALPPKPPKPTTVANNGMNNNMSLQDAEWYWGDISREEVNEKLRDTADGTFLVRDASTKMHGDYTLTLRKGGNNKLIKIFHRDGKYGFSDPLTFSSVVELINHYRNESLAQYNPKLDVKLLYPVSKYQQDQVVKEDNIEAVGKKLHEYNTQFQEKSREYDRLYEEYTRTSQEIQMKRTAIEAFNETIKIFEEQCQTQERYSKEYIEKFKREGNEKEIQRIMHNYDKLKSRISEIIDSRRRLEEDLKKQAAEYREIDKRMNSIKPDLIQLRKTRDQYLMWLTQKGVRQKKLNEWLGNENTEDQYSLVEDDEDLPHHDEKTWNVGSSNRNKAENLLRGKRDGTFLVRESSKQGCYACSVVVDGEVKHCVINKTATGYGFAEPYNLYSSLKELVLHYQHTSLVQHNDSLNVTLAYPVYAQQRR
# Sequence of CDK4 (P11802 whole entry): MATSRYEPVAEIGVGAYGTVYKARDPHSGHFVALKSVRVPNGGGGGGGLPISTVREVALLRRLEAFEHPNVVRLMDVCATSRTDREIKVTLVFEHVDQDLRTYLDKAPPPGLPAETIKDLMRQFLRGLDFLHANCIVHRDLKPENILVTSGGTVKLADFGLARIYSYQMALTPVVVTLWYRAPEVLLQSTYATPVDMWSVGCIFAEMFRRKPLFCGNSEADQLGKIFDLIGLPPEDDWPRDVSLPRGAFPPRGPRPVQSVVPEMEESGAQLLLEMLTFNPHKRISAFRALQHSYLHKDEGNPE
# Sequence of CDK4 (P24385 whole entry partner): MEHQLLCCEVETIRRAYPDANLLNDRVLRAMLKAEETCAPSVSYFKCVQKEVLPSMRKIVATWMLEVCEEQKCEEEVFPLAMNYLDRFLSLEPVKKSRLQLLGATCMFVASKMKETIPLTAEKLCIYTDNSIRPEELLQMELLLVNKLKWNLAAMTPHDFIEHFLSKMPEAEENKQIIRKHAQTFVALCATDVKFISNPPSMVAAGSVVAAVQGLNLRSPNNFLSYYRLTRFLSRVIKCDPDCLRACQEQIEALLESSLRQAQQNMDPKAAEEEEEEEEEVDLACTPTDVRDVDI
# Sequence of CDK7 (cyclin H) (P50613 whole entry): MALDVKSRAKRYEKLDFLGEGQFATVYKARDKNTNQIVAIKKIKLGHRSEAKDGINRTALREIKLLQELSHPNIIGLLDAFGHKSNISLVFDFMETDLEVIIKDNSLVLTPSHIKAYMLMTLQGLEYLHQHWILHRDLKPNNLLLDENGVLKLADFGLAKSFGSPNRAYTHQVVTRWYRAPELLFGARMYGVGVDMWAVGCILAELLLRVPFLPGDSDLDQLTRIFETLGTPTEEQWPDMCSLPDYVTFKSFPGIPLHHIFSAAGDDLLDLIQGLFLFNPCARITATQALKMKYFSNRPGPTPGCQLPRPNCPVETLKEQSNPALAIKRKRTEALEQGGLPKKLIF
# Sequence of CDK7 (cyclin H) (P51946 whole entry partner): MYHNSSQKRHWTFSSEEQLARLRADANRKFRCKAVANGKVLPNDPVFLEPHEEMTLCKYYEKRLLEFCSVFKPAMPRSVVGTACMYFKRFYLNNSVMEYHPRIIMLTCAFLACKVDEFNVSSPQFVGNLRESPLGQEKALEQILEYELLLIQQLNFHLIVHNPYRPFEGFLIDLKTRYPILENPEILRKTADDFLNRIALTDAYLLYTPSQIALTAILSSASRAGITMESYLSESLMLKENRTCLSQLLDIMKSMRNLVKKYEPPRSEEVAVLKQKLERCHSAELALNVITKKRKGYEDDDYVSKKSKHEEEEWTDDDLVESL
# Sequence of CDK7 (cyclin H) (P51948 whole entry partner): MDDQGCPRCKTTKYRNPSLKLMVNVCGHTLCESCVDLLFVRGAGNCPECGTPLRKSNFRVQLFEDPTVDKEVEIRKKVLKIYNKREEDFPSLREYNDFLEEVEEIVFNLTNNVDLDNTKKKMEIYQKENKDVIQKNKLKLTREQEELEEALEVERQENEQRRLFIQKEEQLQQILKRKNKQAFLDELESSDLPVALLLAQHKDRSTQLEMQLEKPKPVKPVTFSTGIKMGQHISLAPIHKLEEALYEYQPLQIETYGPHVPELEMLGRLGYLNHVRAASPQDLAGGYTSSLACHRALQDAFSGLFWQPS
# Sequence of CDK1 (cyclin B) (P06493 whole entry): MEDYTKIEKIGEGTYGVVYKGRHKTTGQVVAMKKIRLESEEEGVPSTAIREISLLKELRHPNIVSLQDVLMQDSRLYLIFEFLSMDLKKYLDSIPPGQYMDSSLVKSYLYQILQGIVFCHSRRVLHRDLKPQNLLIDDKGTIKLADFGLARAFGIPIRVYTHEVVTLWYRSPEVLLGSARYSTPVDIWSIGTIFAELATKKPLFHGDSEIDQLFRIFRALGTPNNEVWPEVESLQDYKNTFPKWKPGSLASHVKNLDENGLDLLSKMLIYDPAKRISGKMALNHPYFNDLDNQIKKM
# Sequence of CDK1 (cyclin B) (P14635 whole entry partner): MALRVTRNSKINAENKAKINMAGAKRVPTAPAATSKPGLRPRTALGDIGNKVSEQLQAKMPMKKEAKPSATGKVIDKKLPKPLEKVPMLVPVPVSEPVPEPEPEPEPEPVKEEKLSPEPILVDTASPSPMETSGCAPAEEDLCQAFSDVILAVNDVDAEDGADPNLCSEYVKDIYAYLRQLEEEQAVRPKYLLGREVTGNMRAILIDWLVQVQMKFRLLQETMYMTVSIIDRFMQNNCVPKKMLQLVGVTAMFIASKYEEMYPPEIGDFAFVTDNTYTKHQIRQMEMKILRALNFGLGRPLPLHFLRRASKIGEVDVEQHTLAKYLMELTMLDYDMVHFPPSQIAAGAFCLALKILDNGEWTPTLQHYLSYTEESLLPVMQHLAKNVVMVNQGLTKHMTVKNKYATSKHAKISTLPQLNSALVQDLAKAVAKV
IC50 [1],IC50 [2],IC50 [3],IC50 [5],IC50 [6],IC50 [7],"IC50 [4, 15]",IC50 [8],"IC50 [9, 16]",IC50 [10],IC50 [11],IC50 [12],SMILES,"IC50 [4, 14]","IC50 [9, 17]",IC50 [13]
6.7 nM,3.4 nM,5 nM,6100 nM,3.6 nM,145 nM,25 nM,< 1110 nM,46 nM,5 nM,,,"CC(C)N1CCOc2c(F)cc(-c3nc(Nc4ccc(N5CCC(N(C)C)CC5)c(F)c4)ncc3F)cc21 [Compound 25, N-(4-(4-(dimethylamino)piperidin-1-yl)-3-fluorophenyl)-5-fluoro-4-(8-fluoro-4-isopropyl-3,4-dihydro-2H-benzo[b][1,4]oxazin-6-yl)pyrimidin-2-amine]",,,
3 nM,,40 nM,,,163 nM,20 nM,,45 nM,,,,"CC(C)N1CCOc2c(F)cc(-c3nc(Nc4ccc(N5CCC(N(C)C)CC5)nc4)ncc3F)cc21 [Compound 38, N-(6-(4-(dimethylamino)piperidin-1-yl)pyridin-3-yl)-5-fluoro-4-(8-fluoro-4-isopropyl-3,4-dihydro-2H-benzo[b][1,4]oxazin-6-yl)pyrimidin-2-amine]",,,
9 nM,3 nM,3 nM,,7.7 nM,85 nM,45 nM,,,,,,"CC(C)N1CCOc2c(F)cc(-c3nc(Nc4ccn(C5CCNCC5)c(=O)c4)ncc3F)cc21 [Compound 437, 4-((5-fluoro-4-(8-fluoro-4-isopropyl-3,4-dihydro-2H-benzo[b][1,4]oxazin-6-yl)pyrimidin-2-yl)amino)-1-(piperidin-4-yl)pyridin-2(1H)-one]",,,
73 nM,7 nM,353 nM,> 50000 nM,27 nM,1160 nM,125 nM,,503 nM,41 nM,2 nM,1 nM,"CC(C)N1CCOc2c(F)cc(-c3nc(Nc4ccc(C5CCN(C)CC5)cn4)ncc3F)cc21 [Compound 442, 5-fluoro-4-(8-fluoro-4-isopropyl-3,4-dihydro-2H-benzo[b][1,4]oxazin-6-yl)-N-(5-(1-methylpiperidin-4-yl)pyridin-2-yl)pyrimidin-2-amine]",,,465 nM
679 nM,68 nM,1120 nM,21800 nM,,> 10000 nM,850 nM,,385 nM,280 nM,3.9 nM,8.8 nM,"CC(C)N1CCOc2c(F)cc(-c3nc(Nc4ccc(N5CCOCC5)cn4)ncc3F)cc21 [Compound 446, 5-fluoro-4-(8-fluoro-4-isopropyl-3,4-dihydro-2H-benzo[b][1,4]oxazin-6-yl)-N-(5-morpholinopyridin-2-yl)pyrimidin-2-amine]",,,
238 nM,36 nM,1680 nM,> 50000 nM,,> 10000 nM,300 nM,,230 nM,243 nM,1.1 nM,1.6 nM,"CC(C)N1CCOc2c(F)cc(-c3nc(Nc4ccc(N5CCC(O)CC5)cn4)ncc3F)cc21 [Compound 447, 1-(6-((5-fluoro-4-(8-fluoro-4-isopropyl-3,4-dihydro-2H-benzo[b][1,4]oxazin-6-yl)pyrimidin-2-yl)amino)pyridin-3-yl)piperidin-4-ol]",,,
< 1 nM,< 1 nM,4 nM,19500 nM,,,< 4 nM,,,,4 nM,3.5 nM,"CC(C)N1CCOc2c(F)cc(-c3nc(Nc4ccc5c(c4)CCN(C(=O)CN(C)C)C5)ncc3F)cc21 [Compound 456, 2-(dimethylamino)-1-(6-((5-fluoro-4-(8-fluoro-4-isopropyl-3,4-dihydro-2H-benzo[b][1,4]oxazin-6-yl)pyrimidin-2-yl)amino)-3,4-dihydroisoquinolin-2(1H)-yl)ethan-1-one]",,,
69 nM,24 nM,426 nM,> 20000 nM,,,85 nM,,345 nM,,,,"CC(C)N1CCOc2c(F)cc(-c3nc(Nc4ccc5c(n4)CCNC5)ncc3F)cc21 [Compound 481, N-(5-fluoro-4-(8-fluoro-4-isopropyl-3,4-dihydro-2H-benzo[b][1,4]oxazin-6-yl)pyrimidin-2-yl)-5,6,7,8-tetrahydro-1,6-naphthyridin-2-amine]",,,
21 nM,74 nM,,,,,55 nM,,75 nM,,20 nM,51 nM,"COCCNS(=O)(=O)c1ccc(Nc2ncc(F)c(-c3cc(F)c4c(c3)N(C(C)C)CCO4)n2)cc1 [Compound 523, 4-(5-fluoro-4-(8-fluoro-4-isopropyl-3,4-dihydro-2H-benzo[b][1,4]oxazin-6-yl)pyrimidin-2-ylamino)-N-(2-methoxyethyl)benzenesulfonamide]",,,

SMILES,IC50 [1],IC50 [2],IC50 [3],IC50 [5],IC50 [6],IC50 [7],"IC50 [4, 15]",IC50 [8],"IC50 [9, 16]",IC50 [10],IC50 [11],IC50 [12],"IC50 [4, 14]","IC50 [9, 17]",IC50 [13]
"CCN1CCN(Cc2ccc(Nc3ncc(F)c(-c4cc(F)c5c(c4)N(C(C)C)CCO5)n3)nc2)CC1 [Compound 4, N-(5-((4-ethylpiperazin-1-yl)methyl)pyridin-2-yl)-5-fluoro-4-(8-fluoro-4-isopropyl-3,4-dihydro-2H-benzo[b][1,4]oxazin-6-yl)pyrimidin-2-amine]",130 nM,12 nM,566 nM,> 5000 nM,,,,,,,,,110 nM,,
"CC(C)N1CCOc2c(F)cc(-c3nc(Nc4ccc(C5CCN(C)CC5)nc4)ncc3F)cc21 [Compound 33, 5-fluoro-4-(8-fluoro-4-isopropyl-3,4-dihydro-2H-benzo[b][1,4]oxazin-6-yl)-N-(6-(1-methylpiperidin-4-yl)pyridin-3-yl)pyrimidin-2-amine]",3 nM,2 nM,48 nM,,1 nM,54 nM,< 14 nM,,,2 nM,1.5 nM,1.5 nM,,40 nM,
"CC(C)N1CCOc2c(F)cc(-c3nc(Nc4ccc(N5CCC(N(C)C)CC5)cn4)ncc3F)cc21 [Compound 436, N-(5-(4-(dimethylamino)piperidin-1-yl)pyridin-2-yl)-5-fluoro-4-(8-fluoro-4-isopropyl-3,4-dihydro-2H-benzo[b][1,4]oxazin-6-yl)pyrimidin-2-amine]",82 nM,8 nM,> 5000 nM,,38 nM,2360 nM,165 nM,,383 nM,73 nM,,,,,390 nM
"CC(C)N1CCOc2c(F)cc(-c3nc(Nc4ccc(N5CCCNCC5)cn4)ncc3F)cc21 [Compound 477, N-(5-(1,4-diazepan-1-yl)pyridin-2-yl)-5-fluoro-4-(8-fluoro-4-isopropyl-3,4-dihydro-2H-benzo[b][1,4]oxazin-6-yl)pyrimidin-2-amine]",158 nM,25 nM,752 nM,> 50000 nM,,,,,,,,,280 nM,1100 nM,
"Fc1cnc(Nc2ccc(N3CCCNCC3)cn2)nc1-c1cc(F)c2c(c1)N(C1CCCC1)CCO2 [Compound 478, N-(5-(1,4-diazepan-1-yl)pyridin-2-yl)-4-(4-cyclopentyl-8-fluoro-3,4-dihydro-2H-benzo[b][1,4]oxazin-6-yl)-5-fluoropyrimidin-2-amine]",453 nM,97 nM,2220 nM,33700 nM,,,,,,,9 nM,27 nM,665 nM,1680 nM,
"Fc1cnc(Nc2ccc3c(n2)CCNC3)nc1-c1cc(F)c2c(c1)N(C1CCC1)CCO2 [Compound 482, N-(4-(4-cyclobutyl-8-fluoro-3,4-dihydro-2H-benzo[b][1,4]oxazin-6-yl)-5-fluoropyrimidin-2-yl)-5,6,7,8-tetrahydro-1,6-naphthyridin-2-amine]",155 nM,29 nM,1750 nM,> 50000 nM,,,,,,,3 nM,16 nM,230 nM,540 nM,
"CC(C)CN1CCOc2c(F)cc(-c3nc(Nc4ccc5c(n4)CCNC5)ncc3F)cc21 [Compound 483, N-(5-fluoro-4-(8-fluoro-4-isobutyl-3,4-dihydro-2H-benzo[b][1,4]oxazin-6-yl)pyrimidin-2-yl)-5,6,7,8-tetrahydro-1,6-naphthyridin-2-amine]",181 nM,44 nM,> 5000 nM,> 50000 nM,,,,,,,25 nM,20 nM,460 nM,665 nM,

# Reference: patent publication US11174252B2, “Heterocyclic compounds as kinase inhibitors” (priority 2018, dated 2021)
